{"source": "paper PMC12508156", "about": "“Non-canonical dihydrolipoyl transacetylase promotes chemotherapy resistance via mitochondrial tetrahydrofolate signaling” (Nature Communications, 2025)", "key": {"KB-3-1cisR cells": {"test_system": "KB-3-1cisR cells", "test": "Apoptotic cell death (annexin V/PI staining)", "format": "cell-based, human"}, "PCI-37B cells": {"test_system": "PCI-37B cells", "test": "Apoptotic cell death (annexin V/PI staining)", "format": "cell-based, human", "settings": "cisplatin 1 μg/ml, 48 h, n=1-3: biological replicates"}, "[1]": {"target": "T1, pyruvate dehydrogenase complex (PDC) (Homo sapiens, UniProt P08559+P09622+P10515)", "T1 construct": "endogenous in cells; host or cells: A549cisR and KB-3-1cisR cells (lysates; Abcam PDH Enzyme Activity Microplate Assay Kit)", "T1 sequence (P08559 30-390)": "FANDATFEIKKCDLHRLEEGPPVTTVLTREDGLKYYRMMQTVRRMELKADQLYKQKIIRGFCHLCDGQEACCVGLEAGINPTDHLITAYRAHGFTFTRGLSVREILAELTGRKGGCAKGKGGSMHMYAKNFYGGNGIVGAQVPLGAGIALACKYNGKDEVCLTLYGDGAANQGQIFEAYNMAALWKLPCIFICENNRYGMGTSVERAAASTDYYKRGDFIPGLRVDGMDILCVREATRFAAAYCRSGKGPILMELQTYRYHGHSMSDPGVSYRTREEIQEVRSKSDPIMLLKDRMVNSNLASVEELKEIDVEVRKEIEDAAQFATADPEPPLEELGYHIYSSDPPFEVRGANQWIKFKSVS", "T1 sequence (P10515 87-647)": "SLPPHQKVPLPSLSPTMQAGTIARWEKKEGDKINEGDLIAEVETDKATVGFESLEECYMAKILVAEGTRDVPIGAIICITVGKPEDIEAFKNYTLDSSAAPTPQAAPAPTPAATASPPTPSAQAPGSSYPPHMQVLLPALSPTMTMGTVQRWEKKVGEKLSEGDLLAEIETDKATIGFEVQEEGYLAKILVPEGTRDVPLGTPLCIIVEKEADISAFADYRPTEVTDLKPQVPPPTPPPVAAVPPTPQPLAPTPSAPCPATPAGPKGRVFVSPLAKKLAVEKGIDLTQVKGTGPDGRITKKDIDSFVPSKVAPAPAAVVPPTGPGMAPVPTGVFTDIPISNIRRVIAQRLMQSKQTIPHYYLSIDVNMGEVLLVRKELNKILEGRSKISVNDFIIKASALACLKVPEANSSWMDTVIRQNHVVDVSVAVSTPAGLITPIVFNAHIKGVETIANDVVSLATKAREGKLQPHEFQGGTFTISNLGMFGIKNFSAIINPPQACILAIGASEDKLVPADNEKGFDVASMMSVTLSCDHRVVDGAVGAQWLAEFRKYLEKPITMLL", "T1 sequence (P09622 36-509)": "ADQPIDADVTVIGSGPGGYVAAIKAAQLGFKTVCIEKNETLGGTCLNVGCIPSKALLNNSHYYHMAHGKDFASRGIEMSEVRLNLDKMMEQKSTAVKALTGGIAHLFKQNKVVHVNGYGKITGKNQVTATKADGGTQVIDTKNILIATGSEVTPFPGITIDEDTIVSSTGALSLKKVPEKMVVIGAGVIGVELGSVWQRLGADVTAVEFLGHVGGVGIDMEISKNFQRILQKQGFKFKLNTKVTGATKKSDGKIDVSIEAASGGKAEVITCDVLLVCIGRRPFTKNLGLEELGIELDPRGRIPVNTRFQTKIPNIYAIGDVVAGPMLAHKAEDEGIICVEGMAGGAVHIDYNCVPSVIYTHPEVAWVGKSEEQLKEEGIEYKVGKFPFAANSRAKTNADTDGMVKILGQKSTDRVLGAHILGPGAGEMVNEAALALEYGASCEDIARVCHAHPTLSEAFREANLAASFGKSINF", "test": "PDC activity (PDH enzyme activity microplate assay)", "format": "cell-based", "settings": "cisplatin 24 h, NADH production from PDH reaction, normalised, n=1-3: biological replicates, listed as cis", "procedure": "Cellular metabolic states were examined through various assays. […] Intracellular H2O2, NADPH, acetyl-CoA, and GSH/GSSG ratios were quantified using commercial assay kits as listed in the Reagents. Intracellular ATP levels were determined utilizing the ATP bioluminescent somatic cell assay and normalized to the total protein concentrations. The de novo synthesized RNA and proteins were assessed in cancer cells using commercial assays following the manufacturer’s protocols. In brief, O-propargyl-puromycin or uridine analog, 5-EU, was applied to stop translation or modify RNA. Polypeptides or modified RNA were measured using fluorescent azide with Ex/Em at 494/521 nm. PDC activity was determined by measuring the reduction of NAD+ to NADH during the conversion of pyruvate into acetyl-CoA. To estimate the activity of the pyruvate dehydrogenase complex (PDC), PDH (E1 subunit) activity was measured using the Pyruvate Dehydrogenase Enzyme Activity Microplate Assay Kit (Abcam) according to the manufacturer’s instructions. Briefly, A549^cisR and KB-3-1^cisR cells with or without DLAT knockdown were harvested, washed with PBS, and lysed using the supplied detergent solution. After quantifying protein concentration, lysates were diluted to 10 mg/ml in 1 ⅹ buffer, and 200 μl of assay solution was added to each well, and absorbance at 450 nm was measured kinetically every 30 s for 30 min at room temperature using a microplate reader."}, "protein synthesis": {"test_system": "protein synthesis", "test": "Global protein synthesis (O-propargyl-puromycin)", "format": "cell-based, human", "procedure": "Cellular metabolic states were examined through various assays. To gauge the levels of total intracellular or mitochondrial reactive oxygen species (ROS), cells were stained with CM-H2DCFDA or mitoSOX, respectively. Intracellular H2O2, NADPH, acetyl-CoA, and GSH/GSSG ratios were quantified using commercial assay kits as listed in the Reagents. Intracellular ATP levels were determined utilizing the ATP bioluminescent somatic cell assay and normalized to the total protein concentrations. The de novo synthesized RNA and proteins were assessed in cancer cells using commercial assays following the manufacturer’s protocols. In brief, O-propargyl-puromycin or uridine analog, 5-EU, was applied to stop translation or modify RNA. Polypeptides or modified RNA were measured using fluorescent azide with Ex/Em at 494/521 nm. PDC activity was determined by measuring the reduction of NAD+ to NADH during the conversion of pyruvate into acetyl-CoA."}}, "note": "Several values for one entry are separate records, joined by “and”; a condition that tells them apart may be missing. Equal entries are not always repeated.", "data": [{"smiles": "N.N.[Cl][Pt][Cl]", "note": "[cisplatin]", "values": [{"measurement": "Apoptotic death", "setting": "KB-3-1cisR cells; KB-3-1cisR pLKO.1+pLHCX, cisplatin 5 μg/ml, 48 h, n=1-4: biological replicates, listed as cis", "result": "8.39 and 8.75 and 8.86 and 8.83"}, {"measurement": "Apoptotic death", "setting": "KB-3-1cisR cells; KB-3-1cisR shDLAT+DLAT(WT) rescue, cisplatin 5 μg/ml, 48 h, n=1-4: biological replicates, listed as cis", "result": "6.91 and 7.48 and 7.23"}, {"measurement": "Apoptotic death", "setting": "KB-3-1cisR cells; KB-3-1cisR, KQ, sheet Figure 6E, replicate n=3", "result": 10}, {"measurement": "Apoptotic death", "setting": "KB-3-1cisR cells; KB-3-1cisR, shDLAT, sheet Figure 5F, replicate n=1", "result": 63.6}, {"measurement": "Apoptotic death", "setting": "KB-3-1cisR cells; KB-3-1cisR, shDLAT, sheet Figure 5F, replicate n=2", "result": 64.3}, {"measurement": "Apoptotic death", "setting": "PCI-37B cells; PCI-37B pLKO.1", "result": 19.17}, {"measurement": "Apoptotic death", "setting": "PCI-37B cells; PCI-37B shDLAT #1", "result": 38.02}, {"measurement": "Apoptotic death", "setting": "PCI-37B cells; PCI-37B shDLAT #2", "result": "33.33 and 33.41 and 32.54"}, {"measurement": "PDC activity", "setting": "[1]; A549cisR pLKO.1", "result": "0.9844 and 1.125 and 1.078"}, {"measurement": "PDC activity", "setting": "[1]; A549cisR shDLAT", "result": "0.375 and 0.4219"}, {"measurement": "PDC activity", "setting": "[1]; KB-3-1cisR pLKO.1", "result": "1.12 and 1.073"}, {"measurement": "PDC activity", "setting": "[1]; KB-3-1cisR shDLAT", "result": "0.06728 and 0.05145 and 0.04749"}, {"measurement": "Global protein synthase", "setting": "protein synthesis; A549cisR, pLKO.1, n=1 (Figure 3B)", "result": 73.5}, {"measurement": "Global protein synthase", "setting": "protein synthesis; A549cisR, pLKO.1, n=2 (Figure 3B)", "result": 70.6}, {"measurement": "Global protein synthase", "setting": "protein synthesis; A549cisR, pLKO.1, n=3 (Figure 3B)", "result": 67.1}, {"measurement": "Global protein synthase", "setting": "protein synthesis; A549cisR, shDLAT, n=1 (Figure 3B)", "result": 76.2}, {"measurement": "Global protein synthase", "setting": "protein synthesis; A549cisR, shDLAT, n=2 (Figure 3B)", "result": 75.5}, {"measurement": "Global protein synthase", "setting": "protein synthesis; A549cisR, shDLAT, n=3 (Figure 3B)", "result": 73.3}, {"measurement": "Global protein synthase", "setting": "protein synthesis; KB-3-1cisR, pLKO.1, n=1 (Figure 3B)", "result": 101}, {"measurement": "Global protein synthase", "setting": "protein synthesis; KB-3-1cisR, pLKO.1, n=2 (Figure 3B)", "result": 98.7}, {"measurement": "Global protein synthase", "setting": "protein synthesis; KB-3-1cisR, pLKO.1, n=3 (Figure 3B)", "result": 101}, {"measurement": "Global protein synthase", "setting": "protein synthesis; KB-3-1cisR, shDLAT, n=1 (Figure 3B)", "result": 92.8}, {"measurement": "Global protein synthase", "setting": "protein synthesis; KB-3-1cisR, shDLAT, n=2 (Figure 3B)", "result": 100}, {"measurement": "Global protein synthase", "setting": "protein synthesis; KB-3-1cisR, shDLAT, n=3 (Figure 3B)", "result": 92.4}]}]}
